Experimental data published in US12630532B2, “Indole-substituted quinolines and their combination with Plk1 inhibitors for the treatment of cancer” (UNIVERSITY OF KENTUCKY RESEARCH FOUNDATION, priority 2021, dated 2026).

test system: LS174T cells; experiment: Cell proliferation inhibition assay (5 days, cell counting); format: cell-based; conditions: 250 nM, 5 days
Protocol: Cell proliferation inhibition assays were done following a previous report (32). Cancer cells were seeded into 24-well plates at a density of 20,000 cells per well in 1 mL of culture medium and were cultured overnight at 37° C. Compounds and the vehicle control (DMSO) were added to the cells. After 5 days, the medium was removed, and 100 μL of trypsin was added. The cells were resuspended in phosphate-buffered saline (PBS) and were counted by Vi-CELL XR 2.03 (Beckman Coulter, Inc. USA). The ratio R of the number of viable cells in the compound treatment group to the number of viable cells in DMSO treatment group was taken as relative growth, and the percentage growth inhibition was calculated as (1−R)*100.

Compound | Inhibition % on LS174T cells Proliferation 250 nM [%]
3-(1-Methyl-1H-indol-3-yl)-7-(4-methylpiperazin-1-yl)quinolin-2-amine [ISQ-3] | 27 ± 14

same assay, conditions: 0.3 uM

Compound | Inhibition % on LS174T cells Proliferation 0.3 uM Inhib. % [%]
3-(1-Methyl-1H-indol-3-yl)-7-(4-methylpiperazin-1-yl)quinolin-2-amine [ISQ-3] | 73.9

same assay, conditions: 500 nM

Compound | percentage inhibition of LS174T cell proliferation at 500 nM, compared among ISQs (FIG. 2B)
Cn1cc(-c2cc3ccc(N4CCC(CO)CC4)cc3nc2N)c2ccccc21 [ISQ-8, (1-(2-Amino-3-(1-methyl-1H-indol-3-yl)quinolin-7-yl)piperidin-4-yl)methanol] | comparable to the N,N-dimethylamino group in ISQ-1
COCC1CCN(c2ccc3cc(-c4cn(C)c5ccccc45)c(N)nc3c2)CC1 [ISQ-9, 7-(4-(Methoxymethyl)piperidin-1-yl)-3-(1-methyl-1H-indol-3-yl)quinolin-2-amine] | comparable to the N,N-dimethylamino group in ISQ-1
Cn1cc(-c2cc3ccc(N4CCC(c5ccncc5)CC4)cc3nc2N)c2ccccc21 [ISQ-10, 3-(1-Methyl-1H-indol-3-yl)-7-(4-(pyridin-4-yl)piperidin-1-yl)quinolin-2-amine] | comparable to the N,N-dimethylamino group in ISQ-1

same assay, conditions: 500 nM, 5 days

Compound | Inhibition % on LS174T cells Proliferation 500 nM [%]
3-(1-Methyl-1H-indol-3-yl)-7-(4-methylpiperazin-1-yl)quinolin-2-amine [ISQ-3] | 89 ± 2.1

same assay, conditions: 1 uM

Compound | Inhibition % on LS174T cells Proliferation 1 uM Inhib. % [%]
3-(1-Methyl-1H-indol-3-yl)-7-(4-methylpiperazin-1-yl)quinolin-2-amine [ISQ-3] | 95.5

same assay, conditions: 3 uM

Compound | Inhibition % on LS174T cells Proliferation 3 uM Inhib. % [%]
3-(1-Methyl-1H-indol-3-yl)-7-(4-methylpiperazin-1-yl)quinolin-2-amine [ISQ-3] | 99.7

same assay, conditions: Homo sapiens, LS174T, 120 h; 62 nM, 5 days

Compound | inhibition at 0.062 µM [%]
Cn1cc(-c2cc3ccc(N4CCCCC4)cc3nc2N)c2ccccc21 [ISQ-2, 3-(1-Methyl-1H-indol-3-yl)-7-(piperidin-1-yl)quinolin-2-amine] | 8.2 ± 5.6
Cn1cc(-c2cc3ccc(N4CCC(CO)CC4)cc3nc2N)c2ccccc21 [ISQ-8, (1-(2-Amino-3-(1-methyl-1H-indol-3-yl)quinolin-7-yl)piperidin-4-yl)methanol] | 20 ± 9
COCC1CCN(c2ccc3cc(-c4cn(C)c5ccccc45)c(N)nc3c2)CC1 [ISQ-9, 7-(4-(Methoxymethyl)piperidin-1-yl)-3-(1-methyl-1H-indol-3-yl)quinolin-2-amine] | 12 ± 1.9
Cn1cc(-c2cc3ccc(N4CCC(c5ccncc5)CC4)cc3nc2N)c2ccccc21 [ISQ-10, 3-(1-Methyl-1H-indol-3-yl)-7-(4-(pyridin-4-yl)piperidin-1-yl)quinolin-2-amine] | 21 ± 5.7
Nc1nc2cc(N3CCC(c4ccccc4)CC3)ccc2cc1-c1ccccc1F [LMK-6-89] | 2 ± 3
N#CC1CCN(c2ccc3cc(-c4ccccc4F)c(N)nc3c2)CC1 [LMK-6-99] | 2 ± 0.2
COCC1CCN(c2ccc3cc(-c4ccccc4F)c(N)nc3c2)CC1 [LMK-6-109] | 16 ± 8.4
Nc1nc2cc(N3CCC(CO)CC3)ccc2cc1-c1ccccc1F [LMK-6-117] | 12 ± 1.4

same assay, conditions: Homo sapiens, LS174T, 120 h; 125 nM, 5 days

Compound | inhibition at 0.125 µM [%]
Cn1cc(-c2cc3ccc(N4CCCCC4)cc3nc2N)c2ccccc21 [ISQ-2, 3-(1-Methyl-1H-indol-3-yl)-7-(piperidin-1-yl)quinolin-2-amine] | 28 ± 4.6
Cn1cc(-c2cc3ccc(N4CCC(CO)CC4)cc3nc2N)c2ccccc21 [ISQ-8, (1-(2-Amino-3-(1-methyl-1H-indol-3-yl)quinolin-7-yl)piperidin-4-yl)methanol] | 59 ± 2.7
COCC1CCN(c2ccc3cc(-c4cn(C)c5ccccc45)c(N)nc3c2)CC1 [ISQ-9, 7-(4-(Methoxymethyl)piperidin-1-yl)-3-(1-methyl-1H-indol-3-yl)quinolin-2-amine] | 55 ± 2.3
Cn1cc(-c2cc3ccc(N4CCC(c5ccncc5)CC4)cc3nc2N)c2ccccc21 [ISQ-10, 3-(1-Methyl-1H-indol-3-yl)-7-(4-(pyridin-4-yl)piperidin-1-yl)quinolin-2-amine] | 84 ± 2.7
Nc1nc2cc(N3CCC(c4ccccc4)CC3)ccc2cc1-c1ccccc1F [LMK-6-89] | 20 ± 0.6
N#CC1CCN(c2ccc3cc(-c4ccccc4F)c(N)nc3c2)CC1 [LMK-6-99] | 9 ± 2.2
COCC1CCN(c2ccc3cc(-c4ccccc4F)c(N)nc3c2)CC1 [LMK-6-109] | 29 ± 0.3
Nc1nc2cc(N3CCC(CO)CC3)ccc2cc1-c1ccccc1F [LMK-6-117] | 12 ± 0.7

same assay, conditions: Homo sapiens, LS174T, 120 h; 250 nM, 5 days

Compound | inhibition at 0.25 µM [%]
Cn1cc(-c2cc3ccc(N4CCCCC4)cc3nc2N)c2ccccc21 [ISQ-2, 3-(1-Methyl-1H-indol-3-yl)-7-(piperidin-1-yl)quinolin-2-amine] | 55 ± 0.5
Cn1cc(-c2cc3ccc(N4CCC(CO)CC4)cc3nc2N)c2ccccc21 [ISQ-8, (1-(2-Amino-3-(1-methyl-1H-indol-3-yl)quinolin-7-yl)piperidin-4-yl)methanol] | 97 ± 0.2
COCC1CCN(c2ccc3cc(-c4cn(C)c5ccccc45)c(N)nc3c2)CC1 [ISQ-9, 7-(4-(Methoxymethyl)piperidin-1-yl)-3-(1-methyl-1H-indol-3-yl)quinolin-2-amine] | 98
Cn1cc(-c2cc3ccc(N4CCC(c5ccncc5)CC4)cc3nc2N)c2ccccc21 [ISQ-10, 3-(1-Methyl-1H-indol-3-yl)-7-(4-(pyridin-4-yl)piperidin-1-yl)quinolin-2-amine] | 99 ± 13.1
Nc1nc2cc(N3CCC(c4ccccc4)CC3)ccc2cc1-c1ccccc1F [LMK-6-89] | 23 ± 3.8
N#CC1CCN(c2ccc3cc(-c4ccccc4F)c(N)nc3c2)CC1 [LMK-6-99] | 17 ± 0.1
COCC1CCN(c2ccc3cc(-c4ccccc4F)c(N)nc3c2)CC1 [LMK-6-109] | 70 ± 8.8
Nc1nc2cc(N3CCC(CO)CC3)ccc2cc1-c1ccccc1F [LMK-6-117] | 32 ± 10.5

same assay, conditions: Homo sapiens, LS174T, 120 h; 500 nM, 5 days

Compound | inhibition at 0.5 µM [%]
Cn1cc(-c2cc3ccc(N4CCCCC4)cc3nc2N)c2ccccc21 [ISQ-2, 3-(1-Methyl-1H-indol-3-yl)-7-(piperidin-1-yl)quinolin-2-amine] | 97 ± 0.4
CC(C)C1CCN(c2ccc3cc(-c4cn(C)c5ccccc45)c(N)nc3c2)CC1 [ISQ-4, 7-(4-Isopropylpiperidin-1-yl)-3-(1-methyl-1H-indol-3-yl)quinolin-2-amine] | 36 ± 0.9
Cn1cc(-c2cc3ccc(N4CCC(Cc5ccccc5)CC4)cc3nc2N)c2ccccc21 [ISQ-5, 7-(4-Benzylpiperidin-1-yl)-3-(1-methyl-1H-indol-3-yl)quinolin-2-amine] | 21 ± 3.9
Cn1cc(-c2cc3ccc(N4CCC(c5ccccc5)CC4)cc3nc2N)c2ccccc21 [ISQ-6, 3-(1-Methyl-1H-indol-3-yl)-7-(4-phenylpiperidin-1-yl)quinolin-2-amine] | 56 ± 13.1
Cn1cc(-c2cc3ccc(N4CCC(CO)CC4)cc3nc2N)c2ccccc21 [ISQ-8, (1-(2-Amino-3-(1-methyl-1H-indol-3-yl)quinolin-7-yl)piperidin-4-yl)methanol] | 98 ± 0.6
COCC1CCN(c2ccc3cc(-c4cn(C)c5ccccc45)c(N)nc3c2)CC1 [ISQ-9, 7-(4-(Methoxymethyl)piperidin-1-yl)-3-(1-methyl-1H-indol-3-yl)quinolin-2-amine] | 99 ± 0.1
Cn1cc(-c2cc3ccc(N4CCC(c5ccncc5)CC4)cc3nc2N)c2ccccc21 [ISQ-10, 3-(1-Methyl-1H-indol-3-yl)-7-(4-(pyridin-4-yl)piperidin-1-yl)quinolin-2-amine] | 99 ± 0.1
CC(C)C1CCN(c2ccc3cc(-c4ccccc4F)c(N)nc3c2)CC1 [LMK-6-84] | 79 ± 5.7
Nc1nc2cc(N3CCC(c4ccccc4)CC3)ccc2cc1-c1ccccc1F [LMK-6-89] | 89 ± 1
Nc1nc2cc(N3CCC(Cc4ccccc4)CC3)ccc2cc1-c1ccccc1F [LMK-6-91] | 14 ± 1.2
N#CC1CCN(c2ccc3cc(-c4ccccc4F)c(N)nc3c2)CC1 [LMK-6-99] | 64 ± 3.5
COCC1CCN(c2ccc3cc(-c4ccccc4F)c(N)nc3c2)CC1 [LMK-6-109] | 94 ± 0.1
Nc1nc2cc(N3CCC(CO)CC3)ccc2cc1-c1ccccc1F [LMK-6-117] | 59 ± 0.3

same assay, conditions: Homo sapiens, LS174T; read-out: Inhibition % on LS174T cells Proliferation 0.3 uM Inhib. %

Compound | inhibition at 0.3 µM [%]
Nc1nc2cc(N3CCCC3)ccc2cc1-c1cc(Cl)cc(Cl)c1 [LMK-5-280] | 31
Cn1cc(-c2cc3ccc(N4CCOCC4)cc3nc2N)c2ccccc21 [LMK-5-281] | 30.9
Nc1nc2cc(N3CCCCC3)ccc2cc1-c1ccccc1F [LMK-5-286] | 21.9
CN(C)c1ccc2cc(-c3ccc(Cl)c(Cl)c3)c(N)nc2c1 [VMS-4-57] | 26.7

same assay, conditions: Homo sapiens, LS174T; read-out: Inhibition % on LS174T cells Proliferation 1 uM Inhib. %

Compound | inhibition at 1 µM [%]
Nc1nc2cc(N3CCCC3)ccc2cc1-c1cc(Cl)cc(Cl)c1 [LMK-5-280] | 93.1
Cn1cc(-c2cc3ccc(N4CCOCC4)cc3nc2N)c2ccccc21 [LMK-5-281] | 93.7
Nc1nc2cc(N3CCCCC3)ccc2cc1-c1ccccc1F [LMK-5-286] | 96
CN(C)c1ccc2cc(-c3ccc(Cl)c(Cl)c3)c(N)nc2c1 [VMS-4-57] | 57.8

same assay, conditions: Homo sapiens, LS174T; read-out: Inhibition % on LS174T cells Proliferation 3 uM Inhib. %

Compound | inhibition at 3 µM [%]
Nc1nc2cc(N3CCCC3)ccc2cc1-c1cc(Cl)cc(Cl)c1 [LMK-5-280] | 97.7
Cn1cc(-c2cc3ccc(N4CCOCC4)cc3nc2N)c2ccccc21 [LMK-5-281] | 98.1
Nc1nc2cc(N3CCCCC3)ccc2cc1-c1ccccc1F [LMK-5-286] | 97
CN(C)c1ccc2cc(-c3ccc(Cl)c(Cl)c3)c(N)nc2c1 [VMS-4-57] | 74.3

same assay, conditions: Homo sapiens; dose response studies, LS174T; read-out: IC50 values in cell proliferation assays

Compound | IC50 [nM]
Cn1cc(-c2cc3ccc(N4CCC(CO)CC4)cc3nc2N)c2ccccc21 [ISQ-8, (1-(2-Amino-3-(1-methyl-1H-indol-3-yl)quinolin-7-yl)piperidin-4-yl)methanol] | ~100
COCC1CCN(c2ccc3cc(-c4cn(C)c5ccccc45)c(N)nc3c2)CC1 [ISQ-9, 7-(4-(Methoxymethyl)piperidin-1-yl)-3-(1-methyl-1H-indol-3-yl)quinolin-2-amine] | ~100
Cn1cc(-c2cc3ccc(N4CCC(c5ccncc5)CC4)cc3nc2N)c2ccccc21 [ISQ-10, 3-(1-Methyl-1H-indol-3-yl)-7-(4-(pyridin-4-yl)piperidin-1-yl)quinolin-2-amine] | ~100
